According to ChEMBL document CHEMBL3301458, “MMV Malaria Box hERG screening”:
The source made the active and inactive calls. How the calls were made is not given here.

Key:
[1] = molecular target: T1, hERG (Kv11.1, KCNH2) (Homo sapiens, UniProt Q12809); test: in vitro
Description: MMV: Malaria Box compounds were tested for inhibition of the human ether a go-go related gene (hERG), Kv11.1 channel, using IonWorks 384-well patch clamp electrophysiology at 11.1uM (3 independent assay plates up to 12 cells per concentration).

[2] = molecular target: T1, hERG (Kv11.1, KCNH2); test: in vitro; remark: listed apart in the source
Description: MMV: Malaria Box compounds were tested for inhibition of the human ether a go-go related gene (hERG), Kv11.1 channel, using IonWorks 384-well patch clamp electrophysiology at 1.1uM (3 independent assay plates up to 12 cells per concentration).

T1 sequence (Q12809 whole entry): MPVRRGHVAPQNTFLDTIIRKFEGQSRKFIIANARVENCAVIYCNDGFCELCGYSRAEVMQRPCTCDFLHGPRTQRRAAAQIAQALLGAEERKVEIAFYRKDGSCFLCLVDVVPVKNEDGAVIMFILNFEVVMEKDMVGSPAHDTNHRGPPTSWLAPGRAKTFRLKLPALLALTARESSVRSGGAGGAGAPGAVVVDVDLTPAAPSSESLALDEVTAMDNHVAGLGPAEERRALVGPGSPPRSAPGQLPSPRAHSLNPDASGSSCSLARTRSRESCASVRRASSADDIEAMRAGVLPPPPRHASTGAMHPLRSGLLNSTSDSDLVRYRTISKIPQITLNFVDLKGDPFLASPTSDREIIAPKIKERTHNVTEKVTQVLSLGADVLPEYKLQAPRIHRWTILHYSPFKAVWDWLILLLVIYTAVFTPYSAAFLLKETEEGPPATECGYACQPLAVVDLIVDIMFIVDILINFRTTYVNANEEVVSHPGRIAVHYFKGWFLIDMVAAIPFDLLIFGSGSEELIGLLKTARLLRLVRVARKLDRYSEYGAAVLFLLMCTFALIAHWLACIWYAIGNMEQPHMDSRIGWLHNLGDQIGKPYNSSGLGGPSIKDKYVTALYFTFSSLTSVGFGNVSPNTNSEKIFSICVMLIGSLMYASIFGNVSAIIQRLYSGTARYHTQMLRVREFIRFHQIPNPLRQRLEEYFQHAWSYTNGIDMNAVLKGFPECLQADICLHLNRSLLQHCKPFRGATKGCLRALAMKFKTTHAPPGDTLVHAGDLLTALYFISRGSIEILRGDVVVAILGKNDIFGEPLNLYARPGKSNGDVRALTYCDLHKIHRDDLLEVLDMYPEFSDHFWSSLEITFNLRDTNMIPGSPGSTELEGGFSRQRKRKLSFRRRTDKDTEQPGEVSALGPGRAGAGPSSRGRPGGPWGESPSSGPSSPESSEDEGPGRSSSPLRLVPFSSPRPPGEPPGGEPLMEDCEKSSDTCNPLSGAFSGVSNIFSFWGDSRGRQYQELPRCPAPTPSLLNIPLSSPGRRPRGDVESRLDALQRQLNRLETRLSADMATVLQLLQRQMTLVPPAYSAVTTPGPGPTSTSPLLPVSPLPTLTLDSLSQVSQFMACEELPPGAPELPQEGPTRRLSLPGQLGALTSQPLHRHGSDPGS

| SMILES | inhibition at 11.1 µM [1] | inhibition at 1.1 µM [2] [%] |
| --- | --- | --- |
| COc1ccc(-c2cc3c(nn2)-c2ccccc2C3=O)cc1 | -7% (inactive) | -9 |
| O=C(Nc1ccc(-c2nc3cc4ccccc4cc3[nH]2)cc1)c1cccc(Br)c1 | -2% (inactive) | -1 |
| OC1=C2C(=Nc3ccccc3SC2c2ccc(Br)cc2)c2ccccc21 (stereo not drawn) | 10% (inactive) | 3 |
| O=c1cc(NC2CCN(CCCc3ccccc3)CC2)c2cc(Cl)ccc2o1 | 101% | 89 |
| CNCCCNc1ccnc2cc(Cl)ccc12 | 21% (inactive) | -1 |
| OC(CNCc1ccccc1)Cn1c2ccccc2c2ccccc21 (stereo not drawn) | 94% (active) | 41 |
| O=C(NC1CCN(Cc2ccccc2)CC1)c1cc(C(=O)NC2CCN(Cc3ccccc3)CC2)cc(C(=O)NC2CCN(Cc3ccccc3)CC2)c1 | 39% | -2 |
| CCC(C)NCC(O)(c1ccc(Cl)cc1)c1ccc(Cl)cc1 (stereo not drawn) | 89% (active) | 24 |
| COc1ccc(Br)cc1C1Nc2ccc3ccccc3c2C2=C1C(=O)CC(c1ccccc1)C2 (stereo not drawn) | 5% (inactive) | -2 |
| COc1cccc(C(=O)Nc2ccc(-c3nc4ccccc4[nH]3)cc2)c1 | 5% (inactive) | 4 |
| CCOc1ccc2c(c1)CN(Cc1ccc(Cl)cc1)CO2 | 99% (active) | 33 |
| CCOC(=O)C1=C(C)N=c2sc(=Cc3cc(Cl)ccc3O)c(=O)n2C1c1ccc(OC)cc1 (stereo not drawn) | 2% (inactive) | 2 |
| c1ccc2c(NCCc3c[nH]c4ccccc34)c3ccccc3nc2c1 | 109% | 64 |
| CCN1CCN(c2cc(C)c3cc(NC(=O)c4ccc(OC)c(OC)c4)ccc3n2)CC1 | 63% (active) | 15 |
| CC(C)c1ccc(CNCC(O)c2ccccc2)cc1 (stereo not drawn) | 59% (active) | 15 |
| CCOc1ccc(C2N(C)c3ccccc3N2C)cc1 | 7% (inactive) | 2 |
| Cc1cc(NC(=O)c2cccc(C(F)(F)F)c2)n(-c2nc(-c3ccc4c(c3)OCO4)cs2)n1 | 6% (inactive) | 12 |
| CCOC(=O)C1(Cc2ccccc2)CCN(Cc2cccc(OC)c2O)CC1 | 80% (active) | 18 |
| C=CCc1c(C)nc2ccccc2c1O | 11% (inactive) | 11 |
| COc1ccc2nc(N)nc(C)c2c1 | 4% (inactive) | 10 |
| CN1c2ccccc2N(C)C1c1ccc2c(c1)OCO2 | 17% (inactive) | -1 |
| COc1ccc(-c2c(C)nn3c(N)c(C#N)cnc23)cc1OC | 11% (inactive) | 11 |
| COc1ccccc1NC1=C(N2CCCCC2)C(=O)c2ccccc2C1=O | 16% (inactive) | 4 |
| Cc1cc(NC(=O)c2ccc(-c3ccccc3)cc2)no1 | 12% (inactive) | -2 |
| CCN(Cc1ccccc1)C1CCN(Cc2cc(Br)ccc2O)CC1 | 96% (active) | 18 |

| SMILES | inhibition at 11.1 µM [1] | inhibition at 1.1 µM [2] [%] |
| --- | --- | --- |
| COc1ccc(C(=O)C(CCC(CNC(C)(C)C)C(=O)c2ccc(OC)cc2)CNC(C)(C)C)cc1 (stereo not drawn) | 33% | 9 |
| Cc1cccc(-n2ncc3c(O)nc(-n4nc(C)cc4NC(=O)c4cc5ccccc5o4)nc32)c1 | -8% (inactive) | -3 |
| COc1ccc(CCN2C(=O)c3[nH]nc(-c4cc(Cl)c(C)cc4O)c3C2c2ccccc2F)cc1 (stereo not drawn) | 5% | 51 |
| CCN(CC)CCCNc1ccnc2cc3ccccc3cc12 | 23% (inactive) | -2 |
| O=C(Nc1ccc(Cl)c(Cl)c1)Nc1ccc(Cl)c(Cl)c1 | 103% (active) | 15 |
| O=C(CSc1ccc2nnc(-c3cccc(F)c3)n2n1)Nc1ccc2c(c1)OCO2 | 3% (inactive) | 5 |
| COc1ccc(-c2nc3cc(Cc4ccc5[nH]c(-c6ccc(OC)cc6)nc5c4)ccc3[nH]2)cc1 | -1% (inactive) | -7 |
| Cc1ccc(Cl)cc1N1CCN(CCCNC(=O)C2CCN(c3nc4ccccc4[nH]3)CC2)CC1 | 99% | 54 |
| COc1cccc(C=Cc2nc(=O)c3ccccc3o2)c1OC | -4% (inactive) | -3 |
| CCC(O)c1ccc(Br)cc1NC(=O)c1cccc(Cl)c1 (stereo not drawn) | 22% (inactive) | 13 |
| CCCc1c(C)nc2ccc(Br)cc2c1O | 2% (inactive) | 1 |
| COc1cc(-c2nc(-c3ccccc3)c(-c3ccccc3)[nH]2)cc(OC)c1O | 18% (inactive) | 11 |
| COc1ccc(C(=O)C2CC2c2ccc(Cl)cc2)cc1 (stereo not drawn) | 13% (inactive) | -6 |
| O=C(NCc1ccco1)C1CCN(S(=O)(=O)c2ccc(Cl)cc2)CC1 | 38% | 11 |
| O=c1c2c([nH]c3ccccc13)CCCC2 | 6% (inactive) | 4 |
| COc1ccc(-c2nonc2NC(=O)c2cccc(Cl)c2)cc1OC | -4% (inactive) | 4 |
| CN(N=O)C1=C(NC2CCCCC2)C(=O)c2ccccc2C1=O | 70% (active) | -2 |
| CCOC(=O)C1=C(c2ccccc2)N=c2sc(=Cc3cc(C)n(-c4ccc(F)cc4)c3C)c(=O)n2C1c1cccc(OC)c1OC (stereo not drawn) | 11% (inactive) | 3 |
| CCOc1ccccc1CN1CCc2nc3cc(C(C)(C)C)nn3c(O)c2C1 | 58% (active) | -1 |
| COc1ccc(-c2cc(=O)oc3c4c(ccc23)OCN(Cc2ccc(F)cc2)C4)cc1 | 16% (inactive) | 24 |
| CCOc1ccc(-c2nc(NC(=O)c3cccc(S(C)(=O)=O)c3)sc2C)cc1 | 29% | 3 |
| CCCc1cc(O)c2c3c(c(=O)oc2c1)CN(C)CC3 | 94% (active) | 46 |
| COc1ccc2c(c1OC)C(=O)N1c3ccccc3N=C(c3ccc(C)cc3)CC21 (stereo not drawn) | 10% (inactive) | 25 |
| CN(C)CCCNCc1ccc(-c2ccc(F)c(Cl)c2)o1 | 48% | 3 |
| CCOC(=O)c1cnc2ccc(OC)cc2c1Nc1ccc(N2CCN(C)CC2)cc1 | 15% (inactive) | 15 |

| SMILES | inhibition at 11.1 µM [1] | inhibition at 1.1 µM [2] [%] |
| --- | --- | --- |
| CCCCOc1ccc(C(=O)Nc2cc(C)on2)cc1 | 2% (inactive) | -2 |
| CCCCOC(=O)c1ccc(Nc2cc(C)nc3ccc(OC)cc23)cc1 | 91% | 65 |
| O=C(Nc1ccc(C23CC4CC(CC(c5ccccc5)(C4)C2)C3)cc1)c1cccs1 | 3% (inactive) | 4 |
| COc1ccc(-c2cc3c(SCC(=O)Nc4cc(C(F)(F)F)ccc4Cl)nccn3n2)cc1 | 17% (inactive) | 6 |
| COc1ccccc1N1CCN(C(CNS(=O)(=O)c2ccc(Cl)cc2)c2cccnc2)CC1 (stereo not drawn) | 44% | 4 |
| CN1CCN(c2ccc(Nc3c4ccccc4nc4ccccc34)cc2)CC1 | 75% (active) | 24 |
| Cc1cc(Nc2ccc(Cl)cc2)n2nc(C(F)(F)F)nc2n1 | 59% (active) | 19 |
| CCCCCCc1cc2cc(-c3csc(C=Cc4ccccc4)n3)c(=O)oc2cc1O | 93% | 81 |
| OCCNc1nc(Nc2ccc(Cl)c(Cl)c2)nc2ccccc12 | 30% | 4 |
| CC1CN(C(=O)c2sc3ccccc3c2Cl)CC(C)O1 (stereo not drawn) | 10% (inactive) | 4 |
| O=C(NC1CCN(Cc2ccccc2)CC1)c1cc(-c2cccnc2)nc2ccc(Cl)cc12 | 86% (active) | 18 |
| Oc1ccccc1CN1CCC2(CCCN(Cc3ccccc3F)C2)C1 (stereo not drawn) | 59% (active) | 1 |
| COc1ccc2nc(C)cc(Nc3ccc(Cl)cc3)c2c1 | 111% | 67 |
| CCc1ccc(Nc2cc(C)nc3nc(C)nn23)cc1 | 42% | -2 |
| COc1ccc2c(=O)cc(C(Cl)(Cl)Cl)oc2c1 | 9% (inactive) | 6 |
| COc1ccc(C(=O)Nc2ccc3nc(N4CCCCC4)cc(C)c3c2)cc1OC | 96% | 63 |
| Fc1ccc2[nH]c3c(NCCCN4CCOCC4)ncnc3c2c1 | 77% (active) | 24 |
| COc1ccccc1C(=O)ON=C(N)Cc1cccc2ccccc12 | 34% | 2 |
| COc1ccc2nc(C)cc(Nc3cccc(O)c3)c2c1 | 83% (active) | 32 |
| O=C(NC1CCCCC1)C(c1cccs1)N(CCc1ccccc1)C(=O)c1ccco1 (stereo not drawn) | 53% (active) | 13 |
| CC(C)(C)c1ccc(C(=O)Nc2c3c(nn2-c2cccc(Cl)c2)CSC3)cc1 | 0% (inactive) | 4 |
| COc1ccc(C(=O)Nc2ccc(Cl)cc2C(=O)Nc2ccncc2)cc1 | -3% (inactive) | -6 |
| COc1cc2c3cc1Oc1c(OC)c(OC)cc4c1C(Cc1ccc(O)c(c1)Oc1ccc(cc1)CC3N(C)CC2)N(C)CC4 (stereo not drawn) | 69% (active) | 14 |
| COc1cc(C(=O)ON=C(N)Cc2cccc3ccccc23)cc(OC)c1OC | 89% (active) | 26 |
